{
  "source": "patent US10213451B2",
  "about": "“Methods and compounds for modulating the secretion or expression of adhesion proteins or angiopoietins of cells” (PACIFIC ARROW LIMITED, priority 2004, dated 2019)",
  "assay_type_in_all_cases": "cell-based, human",
  "key": {"[1]": {"test_system": "fibronectin expression in ES2 cells", "experiment": "Microarray gene expression, Table 1", "experimental": "(§1) Y/D is the ratio (in folds) of gene expression in cells treated with compound Y as compared with those of the no drug control (D),\n(§2) YM/D is the ratio of gene expression in cells treated with compound YM (ACH-Y, Y without sugar moiety) compared with those of the no drug control (D)\n(§3) Cell culture and drug-treatment.: ES2 cells were seeded in a T-25 flask with 4.5 million cells per flask for 24 hours. Cell culture was replaced with fresh medium with xanifolia-Y (Y) or DMSO no drug control (D) for 24 hours. Cells were then harvested for RNA isolation. Three experiments were done.\n(§4) RNA extraction, labeling, hybridization, and data analysis. RNA was extracted from tumor cells using the Qiagen RNeasy Kit. RNA quality and quantity was checked by the Agilent BioAnalyzer and the NanoDrop® ND-1000 spectrophotometer respectively before further manipulation. The first and second cDNA strands were synthesized from 20 ng of total RNA using the Affymetrix T7 oligo(dT) primer protocol and kit for the two-cycle amplification. To produce amplified biotin-labeled-cRNA, the cDNA was […] by in vitro transcription using the MegaScript kit from Ambion. 15.0 μg of the labeled cRNA was fragmented and re-checked for concentration using the NanoDrop® ND-1000 spectrophotometer. A hybridization cocktail containing Affymetrix spike-in controls and fragmented labeled cRNA was loaded onto the Human U133 Plus 2.0 GeneChip® oligonucleotide array. The Affymetrix array (Affymetrix, Inc. Santa Clara, Calif.) is comprised of over 1,300,000 unique oligonucleotide features that represent greater than 38,500 well-substantiated human genes. The array was hybridized for 16 hours at 45° C. with rotation at 60 rpm then washed and stained with a strepavidin, R-phycoerythrin conjugate stain on the Affymetrix Fluidicis Station 450. Signal amplification was done using biotinylated antistreptavidin. The arrays were scanned using the GeneChip® 3000 confocal laser scanner with autoloader. The images were analyzed and quality control metrics recorded using Affymetrix GCOS software version 1.4. Lastly, the expression value for each gene was calculated using dChip PM-only model based or Plier algorithm.\n(§5) Pairwise comparisons were made as follows: Treated vs. Control (Y vs. D), Modified Drug vs Control (YM/ACY-H vs. D) and Treated vs. Modified Drug (Y vs. YM/ACH-Y) Cel files analyzed using the Bioconductor package of R Statistical programming. Limma analysis generated a reasonable number of changing genes between the samples.\n(§6) The raw data in the .CEL files were normalized by the GCRMA method (robust multi-array analysis). It is implemented in Bioconductor (http://www.bioconductor.org/). The raw signal intensity data were normalized, background corrected and summarized based on certain statistical models, and an expression value, in log 2-scale, is obtained per chip per probe set. Then the null hypothesis was tested that there's no significant changes in gene expression between the treatment pairs. This was done by LIMMA and is also implemented in Bioconductor. It uses empirical Bayes method to estimate the variance in gene expression. One comparison was made, namely, High Grade vs. Low Grade. The raw p-values were adjusted by the Benjamnin-Hochberg method for false discovery rate (FDR) control. All data sets contained a significant number of genes with a p-value less than 0.05, which is that the probability that a gene is NOT differential expressed (false positive) is 1:20."}, "[2]": {"test_system": "collagen expression in ES2 cells", "experiment": "Microarray gene expression, Table 5", "experimental": "as §1, §2, §3, §4, §5, §6"}, "[3]": {"test_system": "integrin expression in ES2 cells", "experiment": "Microarray gene expression, Table 6", "experimental": "as §1, §2, §3, §4, §5, §6"}},
  "data": [
    {"smiles": "C/C=C(/C)C(=O)O[C@H]1[C@H](OC(=O)/C(C)=C\\C)[C@@]2(CO)C(CC1(C)C)C1=CCC3[C@@]4(C)CC[C@H](O)C(C)(C)C4CC[C@@]3(C)[C@]1(C)[C@@H](O)[C@H]2O", "note": "(stereo partly shown) [ACH-Y]", "values": [
      {"measurement": "FN1 fibronectin 1, gene expression ratio to no drug control (D)", "setting": "[1]; probe 210495_x_at", "result": "−1.1", "unit": "folds"},
      {"measurement": "FN1 fibronectin 1, gene expression ratio to no drug control (D)", "setting": "[1]; probe 211719_x_at", "result": "−1.2", "unit": "folds"},
      {"measurement": "FN1 fibronectin 1, gene expression ratio to no drug control (D)", "setting": "[1]; probe 212464_s_at", "result": "−1.1", "unit": "folds"},
      {"measurement": "FN1 fibronectin 1, gene expression ratio to no drug control (D)", "setting": "[1]; probe 216442_x_at", "result": "−1.1", "unit": "folds"},
      {"measurement": "P4HB procollagen-proline, 2-oxoglutarate 4-dioxygenase, beta polypeptide, gene expression ratio to no drug control (D)", "setting": "[2]; probe 200654_at", "result": "−1.3", "unit": "folds"},
      {"measurement": "P4HB procollagen-proline, 2-oxoglutarate 4-dioxygenase, beta polypeptide, gene expression ratio to no drug control (D)", "setting": "[2]; probe 200656_s_at", "result": "−1.2", "unit": "folds"},
      {"measurement": "PLOD1 procollagen-lysine 1,2-oxoglutarate 5-dioxygenase 1, gene expression ratio to no drug control (D)", "setting": "[2]; probe 200827_at", "result": "−1.2", "unit": "folds"},
      {"measurement": "COL6A3 collagen, type VI, alpha 3, gene expression ratio to no drug control (D)", "setting": "[2]; probe 201438_at", "result": "−1.5", "unit": "folds"},
      {"measurement": "PLOD3 procollagen-lysine, 2-oxoglutarate 5-dioxygenase 3, gene expression ratio to no drug control (D)", "setting": "[2]; probe 202185_at", "result": "−1.1", "unit": "folds"},
      {"measurement": "COL1A1 collagen, type I, alpha 1, gene expression ratio to no drug control (D)", "setting": "[2]; probe 202311_s_at", "result": "−3.6", "unit": "folds"},
      {"measurement": "PCOLCE procollagen C-endopeptidase enhancer, gene expression ratio to no drug control (D)", "setting": "[2]; probe 202465_at", "result": "−1.6", "unit": "folds"},
      {"measurement": "PLOD2 procollagen-lysine, 2-oxoglutarate 5-dioxygenase 2, gene expression ratio to no drug control (D)", "setting": "[2]; probe 202619_s_at", "result": "−1.2", "unit": "folds"},
      {"measurement": "PLOD2 procollagen-lysine, 2-oxoglutarate 5-dioxygenase 2, gene expression ratio to no drug control (D)", "setting": "[2]; probe 202620_s_at", "result": "−1.3", "unit": "folds"},
      {"measurement": "P4HA2 procollagen-proline, 2-oxoglutarate 4-dioxygenase, alpha polypeptide II, gene expression ratio to no drug control (D)", "setting": "[2]; probe 202733_at", "result": "−1.9", "unit": "folds"},
      {"measurement": "COL5A1 collagen, type V, alpha 1, gene expression ratio to no drug control (D)", "setting": "[2]; probe 203325_s_at", "result": "−2.8", "unit": "folds"},
      {"measurement": "P4HA1 procollagen-proline, 2-oxoglutarate 4-dioxygenase, alpha polypeptide I, gene expression ratio to no drug control (D)", "setting": "[2]; probe 207543_s_at", "result": "−1.5", "unit": "folds"},
      {"measurement": "COL13A1 collagen, type XIII, alpha 1, gene expression ratio to no drug control (D)", "setting": "[2]; probe 208535_x_at", "result": "−1.2", "unit": "folds"},
      {"measurement": "COL18A1 collagen, type XVIII, alpha 1, gene expression ratio to no drug control (D)", "setting": "[2]; probe 209081_s_at", "result": "−1.5", "unit": "folds"},
      {"measurement": "COL13A1 collagen, type XIII, alpha 1, gene expression ratio to no drug control (D)", "setting": "[2]; probe 211343_s_at", "result": "−1.7", "unit": "folds"},
      {"measurement": "COL13A1 collagen, type XIII, alpha 1, gene expression ratio to no drug control (D)", "setting": "[2]; probe 211809_x_at", "result": "−1.5", "unit": "folds"},
      {"measurement": "COL4A2 collagen, type IV, alpha 2, gene expression ratio to no drug control (D)", "setting": "[2]; probe 211966_at", "result": "−1.7", "unit": "folds"},
      {"measurement": "COL4A1 collagen, type IV, alpha 1, gene expression ratio to no drug control (D)", "setting": "[2]; probe 211981_at", "result": "−2.2", "unit": "folds"},
      {"measurement": "COL6A1 collagen, type VI, alpha 1, gene expression ratio to no drug control (D)", "setting": "[2]; probe 212091_s_at", "result": "−1.9", "unit": "folds"},
      {"measurement": "COL5A1 collagen, type V, alpha 1, gene expression ratio to no drug control (D)", "setting": "[2]; probe 212489_at", "result": "−4.1", "unit": "folds"},
      {"measurement": "COL4A5 collagen, type IV, alpha 5 (Alport syndrome), gene expression ratio to no drug control (D)", "setting": "[2]; probe 213110_s_at", "result": "−2.2", "unit": "folds"},
      {"measurement": "COL6A2 collagen, type VI, alpha 2, gene expression ratio to no drug control (D)", "setting": "[2]; probe 213290_at", "result": "−1.5", "unit": "folds"},
      {"measurement": "COL4A6 collagen, type IV, alpha 6, gene expression ratio to no drug control (D)", "setting": "[2]; probe 213992_at", "result": "−1.9", "unit": "folds"},
      {"measurement": "COL10A1 collagen, type X, alpha 1, gene expression ratio to no drug control (D)", "setting": "[2]; probe 217428_s_at", "result": "−1.2", "unit": "folds"},
      {"measurement": "COL5A2 collagen, type V, alpha 2, gene expression ratio to no drug control (D)", "setting": "[2]; probe 221729_at", "result": "−1.8", "unit": "folds"},
      {"measurement": "COL5A2 collagen, type V, alpha 2, gene expression ratio to no drug control (D)", "setting": "[2]; probe 221730_at", "result": "−1.6", "unit": "folds"},
      {"measurement": "COL12A1 collagen, type XII, alpha 1, gene expression ratio to no drug control (D)", "setting": "[2]; probe 231766_s_at", "result": "−2.4", "unit": "folds"},
      {"measurement": "CCBE1 collagen and calcium binding EGF domains 1, gene expression ratio to no drug control (D)", "setting": "[2]; probe 242324_x_at", "result": "−1.8", "unit": "folds"},
      {"measurement": "COL5A1 collagen, type V, alpha 1, gene expression ratio to no drug control (D)", "setting": "[2]; probe 1556138_a_at", "result": "−2.8", "unit": "folds"},
      {"measurement": "P4HA2 procollagen-proline, 2-oxoglutarate 4-dioxygenase, alpha polypeptide II, gene expression ratio to no drug control (D)", "setting": "[2]; probe 1568611_at", "result": "−2.4", "unit": "folds"},
      {"measurement": "expression ratio to the control, collagen", "setting": "[2]; span over probes of Table 5", "result": "−1.1 to −3.6", "unit": "folds"},
      {"measurement": "ITGA3 integrin, alpha 3, gene expression ratio to no drug control (D)", "setting": "[3]; probe 201474_s_at", "result": "−1.5", "unit": "folds"},
      {"measurement": "ITGA6 integrin, alpha 6, gene expression ratio to no drug control (D)", "setting": "[3]; probe 201656_at", "result": "−1.1", "unit": "folds"}
    ]}
  ]
}
